In patent publication US7888464B2, “Hepatitis C virus inhibitors” (Bristol-Myers Squibb Company, priority 2006, dated 2011):

Legend:
[1] = target: T1, porcine pancreatic elastase (PPE) (Sus scrofa, UniProt P00772); test: Specificity assay, pancreatic elastase; format: biochemical; conditions: read-out: PPE activity in the specificity assays
T1 construct: purchased Sigma, EMDbiosciences
Procedure: (§1) The specificities of compounds of the present disclosure were determined against a variety of serine proteases: human neutrophil elastase (HNE), porcine pancreatic elastase (PPE) and human pancreatic chymotrypsin and one cysteine protease: human liver cathepsin B. In all cases a 96-well plate format protocol using a fluorometric Amino-Methyl-Coumarin (AMC) substrate specific for each enzyme was used as described previously (PCT Patent Application No. WO 00/09543) with some modifications to the serine protease assays. All enzymes were purchased from Sigma, EMDbiosciences while the substrates were from Bachem, Sigma and EMDbiosciences.
(§2) Compound concentrations varied from 100 to 0.4 μM depending on their potency. The enzyme assays were each initiated by addition of substrate to enzyme-inhibitor pre-incubated for 10 min at room temperature and hydrolysis to 15% conversion as measured on cytofluor.
50 mM Tris-HCl, pH 8.0, 50 mM NaCl, 0.1 mM EDTA, 3% DMSO, 0.02% Tween-20, 5 μM succ-AAPV-AMC and 20 nM HNE or 8 nM PPE;
(§3) The percentage of inhibition was calculated using the formula: [1−((UVinh−UVblank)/(UVctl−UVblank))]×100
(§4) A non-linear curve fit was applied to the inhibition-concentration data, and the 50% effective concentration (IC50) was calculated by the use of Excel XLfit software.

[2] = tested on: HCV replicon (Renilla luciferase reporter) in HUH-7 cells; test: HCV replicon luciferase reporter assay; format: cell-based; conditions: Huh-7, read-out: EC50 in the replicon Luciferase assay
Text: An HCV replicon whole cell system was established as described by Lohmann V, Korner F, Koch J, Herian U, Theilmann L, Bartenschlager R., Science 285(5424): 110-3 (1999). This system enabled us to evaluate the effects of our HCV Protease compounds on HCV RNA replication. Briefly, using the HCV strain 1b sequence described in the Lohmann paper (Assession number: AJ238799), an HCV cDNA was synthesized by Operon Technologies, Inc. (Alameda, Calif.), and the full-length replicon was then assembled in plasmid pGem9zf(+) (Promega, Madison, Wis.) using standard molecular biology techniques. The replicon consists of (i) the HCV 5′ UTR fused to the first 12 amino acids of the capsid protein, (ii) the neomycin phosphotransferase gene (neo), (iii) the IRES from encephalomyocarditis virus (EMCV), and (iv) HCV NS3 to NS5B genes and the HCV 3′ UTR. […]
As a secondary assay, EC50 determinations from the replicon FRET assay were confirmed in a replicon luciferase reporter assay. […] Following 4 days in a 37° C./5% CO2 incubator, cells were analyzed for Renilla Luciferase activity using the Promega Dual-Glo Luciferase Assay System. […] Plates were read on a Packard TopCount NXT using a luminescence program.
The percentage inhibition was calculated using the formula below: […]
The values were graphed and analyzed using XLfit to obtain the EC50 value.

human liver cathepsin B = target: T2, human liver cathepsin B (Homo sapiens, UniProt P07858); test: Specificity assay, cathepsin B; format: biochemical; conditions: read-out: Cathepsin B activity in the specificity assays
T2 construct: purchased Sigma, EMDbiosciences; host or cells: human liver
Procedure: as §1, §2
100 mM NaOAC (Sodium Acetate) pH 5.5, 3% DMSO, 1 mM TCEP (Tris(2-carboxyethyl)phosphine hydrochloride), 5 nM Cathepsin B (enzyme stock activated in buffer containing 20 mM TCEP before use), and 2 μM Z-FR-AMC diluted in H2O.
as §3, §4

[3] = tested on: human pancreatic chymotrypsin; test: Specificity assay, chymotrypsin; format: biochemical; conditions: read-out: Chymotrypsin activity in the specificity assays
Procedure: as §1, §2
50 mM Tris(hydroxymethyl)aminomethane hydrochloride (Tris-HCl) pH 8, 0.5 M Sodium Sulfate (Na2SO4), 50 mM NaCl, 0.1 mM EDTA, 3% DMSO, 0.01% Tween-20 with 5 μM LLVY-AMC and 1 nM Chymotrypsin.
as §3, §4

T1 sequence (P00772 27-266): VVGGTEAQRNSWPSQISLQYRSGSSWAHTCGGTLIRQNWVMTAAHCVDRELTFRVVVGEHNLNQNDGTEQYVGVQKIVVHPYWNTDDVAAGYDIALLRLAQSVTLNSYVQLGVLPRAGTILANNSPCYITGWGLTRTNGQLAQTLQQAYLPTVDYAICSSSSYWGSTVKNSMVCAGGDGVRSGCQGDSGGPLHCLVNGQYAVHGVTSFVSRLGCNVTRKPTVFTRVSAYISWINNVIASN

C=C[C@@H]1C[C@]1(NC(=O)[C@@H]1C[C@@](O)(c2ccc(-c3ccccc3)cc2)CN1C(=O)[C@@H](NC(=O)OC(C)(C)C)C(C)(C)C)C(=O)NS(=O)(=O)C1CC1 [Compound 3]
IC50 [1]: > 100 µM | EC50 [2]: 0.0014 µM | IC50 (human liver cathepsin B): > 100 µM | IC50 [3]: 75 µM
